System: V79
Experiment: Cytotoxicity against Chinese hamster lung fibroblasts (V79 cells) was determined by a clonogenic assay and colonies containing >50 cells were counted and surviving fractions (SF) calculated after 2 h incubation at 50 uM of prodrug
Assay type: functional, Cricetulus griseus

| SMILES | Surviving fraction |
| --- | --- |
| O=C(O)Cc1c[nH]c2cc(Cl)ccc12 | 0.00085 |

System: V79
Experiment: Cytotoxicity against Chinese hamster lung fibroblasts (V79 cells) was determined by a clonogenic assay (colonies containing >50 cells were counted and surviving fractions (SF) calculated after 2 hr incubation)
Assay type: functional, Cricetulus griseus

| SMILES | Surviving fraction |
| --- | --- |
| COc1ccc2[nH]c(C)c(CC(=O)O)c2c1 [DESCHLOROBENZOYL INDOMETHACIN] | 0.04 |
| O=C(O)Cc1c[nH]c2cc(Cl)cc(Cl)c12 | 1 |
| O=C(O)Cc1c[nH]c2cc(F)ccc12 | 0.01 |
| COc1ccc2[nH]cc(CC(=O)O)c2c1 | 0.2 |
| O=C(O)Cc1c[nH]c2ccc(OC(F)(F)F)cc12 | 1 |
| Cn1cc(CC(=O)O)c2ccc(Cl)cc21 | 1 |
| O=C(O)Cc1c[nH]c2c(F)cc(Cl)cc12 | 1 |
| Cc1ccc2[nH]cc(CC(=O)O)c2c1 | 1 |
| O=C(O)Cc1c[nH]c2ccccc12 [INDOLE-3-ACETIC ACID] | 0.01 |
| O=C(O)Cc1c[nH]c2ccc(-c3ccccc3)cc12 | 1 |
| O=C(O)Cc1c[nH]c2ccc(Cl)cc12 | 0.003 |
| O=C(O)Cc1c[nH]c2ccc(I)cc12 | 1 |
| O=C(O)Cc1c[nH]c2cccc(Cl)c12 | 1 |
| O=C(O)Cc1c[nH]c2cc(Cl)ccc12 | <1e-05 |
| O=C(O)Cc1c[nH]c2ccc(-c3ccc(Cl)cc3)cc12 | 1 |
| O=C(O)Cc1c[nH]c2ccc(F)cc12 | <1e-05 |
| Cn1cc(CC(=O)O)c2cc(F)ccc21 | 1 |
| Cc1cc(F)c2[nH]cc(CC(=O)O)c2c1 | 1 |
| Cn1cc(CC(=O)O)c2ccccc21 | 0.01 |
| O=C(O)Cc1c[nH]c2c(Cl)cccc12 | 4e-05 |
| Cc1[nH]c2ccc(F)cc2c1CC(=O)O | 1 |
| Cc1ccc(F)c2[nH]cc(CC(=O)O)c12 | 1 |
| O=C(O)Cc1c[nH]c2cccc(F)c12 | 9e-05 |
| Cc1[nH]c2ccccc2c1CC(=O)O | 0.004 |

System: not listed separately
Experiment: Rate constant for oxidation by HRP (horseradish peroxidase) was determined

| SMILES | Rate constant (k) |
| --- | --- |
| COc1ccc2[nH]c(C)c(CC(=O)O)c2c1 [DESCHLOROBENZOYL INDOMETHACIN] | 1710 Ie3 M-1 s-1 |
| O=C(O)Cc1c[nH]c2ccc(-c3ccc(Cl)cc3)cc12 | 103 Ie3 M-1 s-1 |
| Cc1[nH]c2ccccc2c1CC(=O)O | 435 Ie3 M-1 s-1 |

Reference: ChEMBL document CHEMBL1135317, “Halogenated indole-3-acetic acids as oxidatively activated prodrugs with potential for targeted cancer therapy” (2002)
